Measurements: PubChem BioAssay AID1259411 (Chemical Carcinogenesis Research Information System (CCRIS), 2018)
Calls of active or inactive are those of the source. The rule behind the calls is not given here.

System: rodent carcinogenicity bioassays, tumor incidence
Test: CCRIS carcinogenicity studies
Outline: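 NCI-built, expert-reviewed records of carcinogenicity and related test outcomes (mutagenicity, tumor promotion/inhibition) compiled from published and report sources, historical span 1985-2011, not updated.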

In the case of O=NN1CCOCC1, the carcinogen call (Species: FISH, Route: ORAL, Tumor Site: Type of Lesion: LIVER) is reported as “active; positive”, the carcinogen call (Species: HAMSTER, Route: ORAL, Tumor Site: Type of Lesion: LIVER) is reported as “active; positive” and the carcinogen call (Species: HAMSTER, Route: SUBCUTANEOUS, Tumor Site: Type of Lesion: TRACHEA, NASAL CAVITY) is reported as “active; positive”. The carcinogen call (Species: HAMSTER, Strain/Sex: SYRIAN/MALE, Route: INHALATION, Dose: 0, 14.4 MG/M3 4 HR/D 4-5 D/WK FOR 5 WK FOR A DAILY DOSE OF 0, 1.8 MG/KG (STUDY DURATION: 91 WK), Dose: 0, 14.4 MG/M3 4 HR/D 4-5 D/WK FOR 5 WK FOR A DAILY DOSE OF 0, 1.8 MG/KG (STUDY DURATION: 91 WK), Tumor Site: Type of Lesion: LIVER: HEPATOCELLULAR CARCINOMA OR HEMANGIOENDOTHELIOMA OR CARCINOMA, FORESTOMACH: PAPILLOMA, TRACHEA: PAPILLOMA, Tumor Site: Type of Lesion: LIVER: HEPATOCELLULAR CARCINOMA OR HEMANGIOENDOTHELIOMA OR CARCINOMA, FORESTOMACH: PAPILLOMA, TRACHEA: PAPILLOMA) was “active; positive”, the carcinogen call (Species: HAMSTER, Strain/Sex: SYRIAN/MALE, Route: INTRAGASTRIC, Dose: 0, 26 MG/ML IN 0.2 ML STERILIZED WATER 1/WK FOR 26 WK (TOTAL DOSE 135 MG) (STUDY DURATION: LIFESPAN), Tumor Site: Type of Lesion: NASAL CAVITY: CARCINOMA, TRACHEA: ADENOMA) was “active; positive” and the carcinogen call (Species: MOUSE, Route: ORAL, Tumor Site: Type of Lesion: LIVER, LUNG) was “active; positive”. For the same molecule, the carcinogen call (Species: MOUSE, Strain/Sex: STRAIN-A/FEMALE, Route: ORAL, Dose: 0, 0.2 UMOL/ML IN DRINKING WATER FOR 10 WK (TOTAL DOSE: 0, 54 UMOL) FOLLOWED BY TAP WATER FOR 20 WK (STUDY DURATION: 30, Tumor Site: Type of Lesion: LUNG: TUMORS) was “active; positive”, the carcinogen call (Species: RAT, Route: ORAL, Tumor Site: Type of Lesion: KIDNEY, LIVER) was “active; positive” and the carcinogen call (Species: RAT, Strain/Sex: F344/FEMALE, Route: GAVAGE, Dose: 0, 10 MG/WK FOR A TOTAL DOSE OF 1.9 MMOL (STUDY DYRATION: 30 WK), Tumor Site: Type of Lesion: ESOPHAGUS: TUMOR, LIVER: TUMOR, THYROID: TUMOR, Tumor Site: Type of Lesion: ESOPHAGUS: TUMOR, LIVER: TUMOR, THYROID: TUMOR) was “active; positive”. The carcinogen call (Species: RAT, Strain/Sex: F344/FEMALE, Route: INTRAVESICULAR, Dose: 0, 5 MG IN 0.2 ML ETHANOL: DEIONIZED WATER (1:3) 2/WK FOR 30 WK (TOTAL DOSE 2.6 MMOL) (STUDY DURATION: LIFESPAN), Tumor Site: Type of Lesion: LIVER: TUMOR, NASAL MUCOSA: TUMOR, ESOPHAGUS: TUMOR, Tumor Site: Type of Lesion: LIVER: TUMOR, NASAL MUCOSA: TUMOR, ESOPHAGUS: TUMOR) was “active; positive”, the carcinogen call (Species: RAT, Strain/Sex: F344/FEMALE, Route: ORAL, Dose: 0, 26.5 MG/L IN DRINKING WATER 5 D/WK FOR 50 WK (TOTAL DOSE: 0; 1.1 MMOL) (STUDY DURATION: 124 WK), Dose: 0, 26.5 MG/L IN DRINKING WATER 5 D/WK FOR 50 WK (TOTAL DOSE: 0; 1.1 MMOL) (STUDY DURATION: 124 WK), Tumor Site: Type of Lesion: LIVER: HEPATOCELLULAR TUMOR, HEMANGIOSARCOMA) was “active; positive” and the carcinogen call (Species: RAT, Strain/Sex: F344/FEMALE, Route: ORAL, Dose: 40 MG/L IN DRINKING WATER FOR 50 WK, Tumor Site: Type of Lesion: LIVER: HEPATOCELLULAR CARCINOMA, HEMANGIOENDOTHELIAL SARCOMA, ESOPHAGUS: PAPILLOMA, CARCINOMA) was “active; positive”. For the same molecule, the carcinogen call (Species: RAT, Strain/Sex: F344/MALE, Route: ORAL, Dose: 0, 0.02% IN DRINKING WATER FOR 8 WK (STUDY DURATION: 20 WK), Tumor Site: Type of Lesion: LIVER: HEPATOCELLULAR CARCINOMA) was “active; positive”, the carcinogen call (Species: RAT, Strain/Sex: F344/MALE, Route: ORAL, Dose: 16, 40 MG/L IN DRINKING WATER FOR 50 WK, Tumor Site: Type of Lesion: LIVER: HEPATOCELLULAR CARCINOMA, HEMANGIOENDOTHELIAL SARCOMA, ESOPHAGUS: PAPILLOMA) was “active; positive” and the carcinogen call (Species: RAT, Strain/Sex: SD/G/MALE, Route: ORAL, Dose: 0, 0.02% IN DRINKING WATER FOR 8 WK (STUDY DURATION: 20 WK)) was “inactive; negative”. For the same molecule, the carcinogen call (Species: RAT, Strain/Sex: SPRAGUE-DAWLEY/FEMALE, Route: INHALATION, Dose: 0, 7.7 MG/M3 4 HR/D 4-5 D/WK FOR 6 WK FOR A DAILY DOSE OF 0, 0.5 MG/KG (STUDY DURATION: 124 WK), Dose: 0, 7.7 MG/M3 4 HR/D 4-5 D/WK FOR 6 WK FOR A DAILY DOSE OF 0, 0.5 MG/KG (STUDY DURATION: 124 WK), Tumor Site: Type of Lesion: LIVER: HEPATOCELLULAR CARCINOMA, NEOPLASTIC NODULE) was “active; positive” and the carcinogen call (Species: RAT, Strain/Sex: WS/MALE, Route: ORAL, Dose: 0, 0.02% IN DRINKING WATER FOR 8 WK (STUDY DURATION: 20 WK), Tumor Site: Type of Lesion: LIVER: HEPATOCELLULAR CARCINOMA) was “active; positive”.

For Nc1cc([N+](=O)[O-])ccc1O, the carcinogen call (Species: MOUSE, Strain/Sex: B6C3F1/FEMALE, Route: GAVAGE, Dose: 0, 125, 250 MG/KG IN CORN OIL 5D/WK FOR 103 WK (STUDY DURATION: 105 WK), Dose: 0, 125, 250 MG/KG IN CORN OIL 5D/WK FOR 103 WK (STUDY DURATION: 105 WK)) was “inactive; negative”, the carcinogen call (Species: MOUSE, Strain/Sex: B6C3F1/MALE, Route: GAVAGE, Dose: 0, 125, 250 MG/KG IN CORN OIL 5D/WK FOR 103 WK (STUDY DURATION: 105 WK), Dose: 0, 125, 250 MG/KG IN CORN OIL 5D/WK FOR 103 WK (STUDY DURATION: 105 WK)) was “inactive; negative” and the carcinogen call (Species: RAT, Strain/Sex: F344/FEMALE, Route: GAVAGE, Dose: 0, 125, 250 MG/KG IN CORN OIL 5D/WK FOR 103 WK (STUDY DURATION: 105 WK), Dose: 0, 125, 250 MG/KG IN CORN OIL 5D/WK FOR 103 WK (STUDY DURATION: 105 WK)) was “inactive; negative”. For the same molecule, the carcinogen call (Species: RAT, Strain/Sex: F344/MALE, Route: GAVAGE, Dose: 0, 125, 250 MG/KG IN CORN OIL 5D/WK FOR 103 WK (STUDY DURATION: 105 WK), Dose: 0, 125, 250 MG/KG IN CORN OIL 5D/WK FOR 103 WK (STUDY DURATION: 105 WK), Tumor Site: Type of Lesion: PREPUTIAL GLAND: ADENOMA OR CARCINOMA) was “active; positive”.

N#Cc1c(Cl)cccc1Cl was tested, and the carcinogen call (Species: MICE, Strain/Sex: SWISS/MALE, Route: INTRAPERITONEAL, Dose: 2 PPM (0.0005MG) 1/3 D FOR 13 TIMES (STUDY DURATION: 375 D), Tumor Site: Type of Lesion: LYMPHATIC SYSTEM: HISTIOCYTIC LYMPHOMA, PLASMA CELL LYMPHOMA, LIVER: HEPATOCELLULAR CARCINOMA) was “active; positive” and the carcinogen call (Species: MICE, Strain/Sex: SWISS/MALE, Route: SUBCUTANEOUS, Dose: 2 PPM (0.0005MG) 1/3 D FOR 13 TIMES (STUDY DURATION: 375 D), Tumor Site: Type of Lesion: LYMPHATIC SYSTEM: PLASMA CELL LYMPHOMA, LUNG: CARCINOMA, BODY CAVITY: MESOTHELIOMA, LIVER: HEPATOCELLULAR CARCINOMA, Tumor Site: Type of Lesion: LYMPHATIC SYSTEM: PLASMA CELL LYMPHOMA, LUNG: CARCINOMA, BODY CAVITY: MESOTHELIOMA, LIVER: HEPATOCELLULAR CARCINOMA) was “active; positive”.
